The text below walks through data of US20110160146A1, “Conjungation of Small Molecules to Octaarginine Transporters for Overcoming Multi-Drug Resistance” (National Institute of Health (NIH), priority 2008, published 2011).

One assay concerns MCF-7. Description: cells. The following applies: Homo sapiens, MCF7, read-out: IC50 concentration. As to the method: (§1) After 72 hours, the cytotoxicity of the relevant compound was determined by an MTT based assay.
(§2) Cell Lines; SKOV-3 cells were obtained from ATCC; UCI-101 and UCI-107 cell lines were obtained from Drs. P. DiSaia and A. Manetta, University of California; MCF-7 and MCF-7-Pgp were obtained from Dr. D. Piwnica-Worms, Washington University; OVCA429, OVCA433 and the taxane resistant derivatives of these cells (OVCA429T, OVCA429TxT, OVCA433T and OVCA433TxT) were obtained from Dr. B. Sikic, Stanford University. All cells were grown in DMEM with 10% FBS.
(§3) Cell Cytotoxicity Assay. The cytotoxicity of relevant compounds was determined by IC50 assay. Cells were seeded overnight into 96-well plates, and then incubated with a serial dilution of the indicated compound for 20 min, before washing twice with fresh media, and incubation at 37° C. for 72 hr in drug-free media. The IC50 values were determined as the concentration of compound required to inhibit the viability of the cell layer by 50% relative to untreated, and cell-free control wells (100 and 0% viability respectively) determined from semi-logarithmic dose response curves. […] Bioluminescence was determined using an IVIS 50 system (Caliper Life Sciences, Alameda, Calif.). Each compound and dilution was tested in triplicate per experiment, with each experiment reproduced three times.

The test system of the next assay is OVCA 429. In words: cells. The following applies: Homo sapiens, OVCA429, read-out: IC50 concentration. As to the method:
as §1, §2, §3

The test system of another assay is OVCA 433. In words: cells. Particulars: Homo sapiens, OVCA433, read-out: IC50 concentration. As to the method: as §1, §2, §3
The subject of the next assay is SKOV-3. Description: cells. Particulars: Homo sapiens, SK-OV-3, read-out: IC50 concentration. As to the method: as §1, §2, §3
For the next assay, the system named is UCI-101 luc. Description: cells. Particulars: Homo sapiens, UCI101, read-out: IC50 concentration. As to the method: as §1, §2, §3
The test system of the next assay is UCI-107 luc. In words: cells. The following applies: Homo sapiens, read-out: IC50 concentration. The protocol:
as §1, §2, §3

A further assay relates to OVCA 429TxT. In words: cells. The following applies: Homo sapiens, read-out: IC50 concentration. As to the method:
as §1
(§4) Within the panel of human cancer cells, there were three sets of related sensitive and resistant cell lines, the latter based wholly or in part on Pgp-mediated efflux. These resistant lines were either created through stable transfection of MCF-7 cells with Pgp (MCF-7-Pgp), or by selection through exposure of OVCA429 and OVCA433 cells to taxol (OVCA429T and OVCA433T)^19 or taxotere (OVCA429TxT and OVCA433TxT), creating a complex MDR phenotype including Pgp upregulation.
as §2, §3

Another assay concerns OVCA 429T. Description: cells. The following applies: Homo sapiens, read-out: IC50 concentration. As to the method:
as §1, §4, §2, §3

In another assay the test system is OVCA 433TxT. Description: cells. The following applies: Homo sapiens, read-out: IC50 concentration. As to the method:
as §1, §4, §2, §3

Another assay concerns OVCA 433T. In words: cells. Particulars: Homo sapiens, read-out: IC50 concentration. The protocol:
as §1, §4, §2, §3

In another assay the test system is MCF-7-pgp. In words: Cell cytotoxicity assay (IC50), MCF-7-pgp. Particulars: Homo sapiens, read-out: IC50 concentration. As to the method:
as §1, §4, §2, §3

The test system of assay [1] is UCI-101 tumor cells expressing luciferase. In words: Mouse tumor model, UCI-101 intraperitoneal xenograft. It counts as in vivo, mice. Particulars: 10 mg/kg dose.
Text: (a) 1×10^7 UCI-101 tumor cells expressing luciferase were implanted into the peritoneal cavity of athymic nu/nu mice 7 days prior to treatment. […] For the purpose of these experiments TFA^− counteranions on both conjugates were exchanged to C. Subsequent tumor burden was followed by bioluminescence imaging (n=8/group). […] Tumor burden was followed by bioluminescence imaging. […] (n=8/group).
Mouse Tumor Models: Tumor xenografts were created by intraperitoneal injection of female athymic CD1 nu/nu or SCID mice with 1×10^7 cells. Versions of UCI-101, OVCA429 or OVCA429T cells were used expressing Firefly luciferase. […] Mice were then treated with three intraperitoneal injections (5 days apart) of 5 or 10 mg/kg taxol or equimolar dose equivalents of the taxol derivatives, or PBS as a control. For the purpose of these experiments TFA^− counteranions on both conjugates were exchanged to C. Subsequent tumor burden was followed by BLI. Once tumor burden reached 1×10^8 photons/sec/mouse the mice were euthanized.
Comparisons of survival (Kaplan-Meier) curves were made by the Wilcoxon-Rank test. Statistical significance was determined as p<0.05.

For the molecule `CC(=O)O[C@H]1C(=O)[C@@]2(C)[C@H]([C@H](OC(=O)c3ccccc3)[C@]3(O)C[C@H](OC(=O)[C@H](O)[C@@H](NC(=O)c4ccccc4)c4ccccc4)C(C)=C1C3(C)C)[C@]1(OC(C)=O)CO[C@@H]1C[C@@H]2O` [compound 1, Taxol, reference compound], the IC50 with MCF-7 worked out at 171 nM; in the assay on OVCA 429, 147 nM; in the assay with OVCA 433, 294 nM; in the assay on SKOV-3, 29 nM; in the assay with UCI-101 luc, 246 nM; in the assay on UCI-107 luc it was 320 nM. In addition, the IC50 in the assay on OVCA 429TxT was 2520 nM; in the assay with OVCA 429T it was 15800 nM; with OVCA 433TxT it was 12400 nM; in the assay on OVCA 433T it was 6180 nM; with MCF-7-pgp it was 867 nM. The molecule also yielded a complete responses in assay [1] of 12.5%.
